From patent US9815839B2, “N-(1-(substituted-phenyl)ethyl)-9H-purin-6-amines as PI3K inhibitors” (Incyte Corporation, priority 2010, dated 2017) come the findings set out here.

The test system of assay [1] is Pfeiffer cell line (diffuse large B cell lymphoma). Nature of the assay: Pfeiffer cell proliferation assay. In kind it is cell-based. Conditions: Homo sapiens, Pfeiffer, Pfeiffer cells, 3-4 days plus 12 hours [3H]-thymidine incorporation. The method, then:
Example C: Pfeiffer Cell Proliferation Assay
Pfeiffer cell line (diffuse large B cell lymphoma) was purchased from ATCC (Manassas, Va.) and maintained in the culture medium recommended (RPMI and 10% FBS). To measure the anti-proliferation activity of the compounds, the Pfeiffer cells were plated with the culture medium (2×10^3 cells/well/per 200 μl) into 96-well ultra-low binding plates (Corning, Corning, N.Y.), in the presence or absence of a concentration range of test compounds. After 3-4 days, [^3H]-thymidine (1 μCi/well) (PerkinElmer, Boston, Mass.) in PBS was then added to the cell culture for an additional 12 hours before the incorporated radioactivity was separated by filtration with water through GF/B filters (Packard Bioscience, Meridenj, Conn.) and measured by liquid scintillation counting with a TopCount (Packard Bioscience).
A general note: Dividing cells build labelled thymidine or BrdU into new DNA.

Another assay concerns the target T1, PI3Kδ (p110δ/p85α) (Homo sapiens, UniProt O00329).
T1 construct: purchased Millipore (Bedford, Mass.)
Nature of the assay: PI3Kδ scintillation proximity assay. Conditions: 20 μM ATP, 4 nM PI3Kδ. In kind it is biochemical. The essentials: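 Radiometric SPA: product captured on WGA beads after EDTA quench and counted, IC50 fitted against log inhibitor concentration. Reactions ran 210 min at room temperature with 4 nM PI3Kδ (p110δ/p85α), 20 μM each PIP2 and ATP plus 33P-ATP, pH 6.7 MOPS buffer, 0.5% DMSO final.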

Structures are written as SMILES. Structures can show the parent of a compound that is named as a salt.

T1 sequence (O00329 whole entry, species assumed): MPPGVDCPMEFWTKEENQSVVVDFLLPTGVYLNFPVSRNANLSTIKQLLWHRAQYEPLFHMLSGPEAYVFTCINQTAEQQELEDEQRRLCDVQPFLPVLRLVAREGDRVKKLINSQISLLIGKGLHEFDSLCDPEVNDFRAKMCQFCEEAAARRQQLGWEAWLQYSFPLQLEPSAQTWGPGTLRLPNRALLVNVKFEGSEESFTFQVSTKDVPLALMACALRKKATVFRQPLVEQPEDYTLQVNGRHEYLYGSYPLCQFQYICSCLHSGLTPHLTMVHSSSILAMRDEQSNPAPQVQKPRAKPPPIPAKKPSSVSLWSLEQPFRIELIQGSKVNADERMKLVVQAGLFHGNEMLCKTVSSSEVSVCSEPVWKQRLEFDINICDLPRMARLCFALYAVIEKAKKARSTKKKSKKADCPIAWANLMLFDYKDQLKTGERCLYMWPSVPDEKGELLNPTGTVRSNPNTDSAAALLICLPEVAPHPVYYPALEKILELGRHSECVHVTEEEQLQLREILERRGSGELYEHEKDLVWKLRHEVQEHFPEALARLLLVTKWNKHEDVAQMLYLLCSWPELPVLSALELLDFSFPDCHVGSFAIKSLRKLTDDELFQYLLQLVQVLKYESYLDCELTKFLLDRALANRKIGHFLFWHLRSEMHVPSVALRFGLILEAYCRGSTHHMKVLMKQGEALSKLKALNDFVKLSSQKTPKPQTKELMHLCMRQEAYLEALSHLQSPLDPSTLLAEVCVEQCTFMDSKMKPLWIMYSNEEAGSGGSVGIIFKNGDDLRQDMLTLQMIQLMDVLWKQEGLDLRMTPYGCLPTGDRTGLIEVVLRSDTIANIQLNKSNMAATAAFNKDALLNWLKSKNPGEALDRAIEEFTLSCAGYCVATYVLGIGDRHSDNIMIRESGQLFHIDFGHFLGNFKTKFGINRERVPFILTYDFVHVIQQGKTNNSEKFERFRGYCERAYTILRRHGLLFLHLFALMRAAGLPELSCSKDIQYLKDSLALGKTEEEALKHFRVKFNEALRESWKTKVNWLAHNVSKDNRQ
T1 sequence (P27986 whole entry partner, species assumed): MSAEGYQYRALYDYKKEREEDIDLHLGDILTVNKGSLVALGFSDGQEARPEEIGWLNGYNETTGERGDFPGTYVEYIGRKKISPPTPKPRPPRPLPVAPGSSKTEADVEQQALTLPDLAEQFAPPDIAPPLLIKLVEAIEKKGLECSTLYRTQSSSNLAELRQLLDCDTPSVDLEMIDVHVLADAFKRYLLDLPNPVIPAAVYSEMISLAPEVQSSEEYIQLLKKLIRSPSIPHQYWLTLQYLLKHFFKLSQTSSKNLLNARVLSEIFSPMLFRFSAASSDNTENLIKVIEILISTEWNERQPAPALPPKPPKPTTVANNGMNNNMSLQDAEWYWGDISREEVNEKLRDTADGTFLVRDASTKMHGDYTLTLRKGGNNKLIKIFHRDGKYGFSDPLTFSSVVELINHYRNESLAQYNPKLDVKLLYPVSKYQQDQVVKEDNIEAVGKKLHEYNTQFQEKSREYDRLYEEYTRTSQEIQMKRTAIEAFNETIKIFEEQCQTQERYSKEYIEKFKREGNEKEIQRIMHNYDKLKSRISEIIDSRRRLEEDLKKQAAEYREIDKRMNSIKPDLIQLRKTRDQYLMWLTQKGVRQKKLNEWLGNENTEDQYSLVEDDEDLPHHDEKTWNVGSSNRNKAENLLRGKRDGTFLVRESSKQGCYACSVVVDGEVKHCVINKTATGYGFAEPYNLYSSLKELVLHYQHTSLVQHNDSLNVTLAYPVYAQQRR

Usually IC50 stands for the midpoint of a concentration-inhibition curve. With `COc1c(C(C)Nc2ncnc3[nH]cnc23)cc(Cl)c(C)c1-c1cccc(F)c1` (centres unmarked) [Example 28, N-[1-(5-chloro-3′-fluoro-2-methoxy-6-methylbiphenyl-3-yl)ethyl]-9H-purin-6-amine], the figures for the IC50 (in assay [1]; at PI3Kδ (p110δ/p85α)) were 100 to 500 nM and under 50 nM, respectively.
For `COc1c(C(C)Nc2ncnc3[nH]cnc23)cc(Cl)c(C)c1-c1cc(F)cc(F)c1` (centres unmarked) [Example 29, N-[1-(5-chloro-3′,5′-difluoro-2-methoxy-6-methylbiphenyl-3-yl)ethyl]-9H-purin-6-amine], in that order: 100 to 500 nM and under 50 nM.
The like results for `COc1c(C(C)Nc2ncnc3[nH]cnc23)cc(Cl)c(C)c1-c1ccc(C#N)cc1` (centres unmarked) [Example 30, 3′-chloro-6′-methoxy-2′-methyl-5′[1-(9H-purin-6-ylamino)ethyl]biphenyl-4-carbonitrile] were, in that order, 100 to 500 nM and under 50 nM.
For `COc1c(C(C)Nc2ncnc3[nH]cnc23)cc(Cl)c(C)c1-c1ccc(C(=O)NC2CC2)cc1` (centres unmarked) [Example 31, 3′-chloro-N-cyclopropyl-6′-methoxy-2′-methyl-5′-[1-(9H-purin-6-ylamino)ethyl]biphenyl-4-carboxamide], in that order: under 100 nM and under 50 nM.
Turning to `COc1cncc(-c2c(C)c(Cl)cc(C(C)Nc3ncnc4[nH]cnc34)c2OC)c1` (centres unmarked) [Example 34, N-{1-[5-chloro-2-methoxy-3-(5-methoxypyridin-3-yl)-4-methylphenyl]ethyl}-9H-purin-6-amine], the figures for the IC50 (in assay [1]; against PI3Kδ (p110δ/p85α)) were under 100 nM and under 50 nM, respectively.
The like results for `COc1c(C(C)Nc2ncnc3[nH]cnc23)cc(Cl)c(C)c1-c1cccc(Cl)c1` (centres unmarked) [Example 35, N-[1-(3′,5-dichloro-2-methoxy-6-methylbiphenyl-3-yl)ethyl]-9H-purin-6-amine] were, in that order, over 1000 nM and 50 to 100 nM.
Consider `COc1c(C(C)Nc2ncnc3[nH]cnc23)cc(Cl)c(C)c1-c1cncc(Cl)c1` (centres unmarked) [Example 36, N-{1-[5-chloro-3-(5-chloropyridin-3-yl)-2-methoxy-4-methylphenyl]ethyl}-9H-purin-6-amine], for which the results for the 50% inhibitory concentration (IC50) (in assay [1]; against PI3Kδ (p110δ/p85α)) were under 100 nM and under 50 nM, respectively.
The like results for `CNC(=O)c1ccc(-c2c(C)c(Cl)cc(C(C)Nc3ncnc4[nH]cnc34)c2OC)cc1Cl` (centres unmarked) [Example 37, 3,3′-dichloro-6′-methoxy-N,2′-dimethyl-5′-[1-(9H-purin-6-ylamino)ethyl]biphenyl-4-carboxamide] were, in that order, under 100 nM and under 50 nM.
As for `COc1c(C(C)Nc2ncnc3[nH]cnc23)cc(Cl)c(C)c1-c1ccc(C(F)(F)F)cc1` (centres unmarked) [Example 38, N-{1-[5-chloro-2-methoxy-6-methyl-4′-(trifluoromethyl)biphenyl-3-yl]ethyl}-9H-purin-6-amine], the results for the concentration for half-maximal inhibition (IC50) (in assay [1]; on PI3Kδ (p110δ/p85α)) were over 1000 nM and 100 to 250 nM, respectively.
The like results for `CCOc1ccc(-c2c(C)c(Cl)cc(C(C)Nc3ncnc4[nH]cnc34)c2OC)cc1F` (centres unmarked) [Example 39, N-[1-(5-chloro-4′-ethoxy-3′-fluoro-2-methoxy-6-methylbiphenyl-3-yl)ethyl]-9H-purin-6-amine] were, in that order, over 1000 nM and 100 to 250 nM.
For `COc1c(C(C)Nc2ncnc3[nH]cnc23)cc(Cl)c(C)c1-c1cccc(C#N)c1` (centres unmarked) [Example 40, 3′-chloro-6′-methoxy-2′-methyl-5′-[1-(9H-purin-6-ylamino)ethyl]biphenyl-3-carbonitrile], the IC50 in assay [1] is under 100 nM; on PI3Kδ (p110δ/p85α), under 50 nM.
In the case of `COc1c(C(C)Nc2ncnc3[nH]cnc23)cc(Cl)c(C)c1-c1ccc(CC#N)cc1` (centres unmarked) [Example 41, {3′-chloro-6′-methoxy-2′-methyl-5′-[1-(9H-purin-6-ylamino)ethyl]biphenyl-4-yl}acetonitril], the results for the concentration for half-maximal inhibition (IC50) (in assay [1]; against PI3Kδ (p110δ/p85α)) were over 1000 nM and under 50 nM, respectively.
As to `COCc1ccc(-c2c(C)c(Cl)cc(C(C)Nc3ncnc4[nH]cnc34)c2OC)cc1` (centres unmarked) [Example 42, N-{1-[5-chloro-2-methoxy-4′-(methoxymethyl)-6-methylbiphenyl-3-yl]ethyl}-9H-purin-6-amine], the values for the IC50 (in assay [1]; against PI3Kδ (p110δ/p85α)) were 100 to 500 nM and under 50 nM, respectively.
For the compound `COc1c(C(C)Nc2ncnc3[nH]cnc23)cc(Cl)c(C)c1-c1ccc(-n2cccn2)cc1` (centres unmarked) [Example 43, N-{1-[5-chloro-2-methoxy-6-methyl-4′-(1H-pyrazol-1-yl)biphenyl-3-yl]ethyl}-9H-purin-6-amine], the IC50 in assay [1] is 100 to 500 nM; against PI3Kδ (p110δ/p85α), under 50 nM.
The like results for `COCc1cccc(-c2c(C)c(Cl)cc(C(C)Nc3ncnc4[nH]cnc34)c2OC)c1` (centres unmarked) [Example 44, N-{1-[5-chloro-2-methoxy-3′-(methoxymethyl)-6-methylbiphenyl-3-yl]ethyl}-9H-purin-6-amine] were, in that order, 100 to 500 nM and under 50 nM.
For `COc1c(C(C)Nc2ncnc3[nH]cnc23)cc(Cl)c(C)c1-c1ccc(OC2CCOCC2)nc1` (centres unmarked) [Example 45, N-(1-{5-chloro-2-methoxy-4-methyl-3-[6-(tetrahydro-2H-pyran-4-yloxy)pyridin-3-yl]phenyl}ethyl)-9H-purin-6-amine], in that order: 100 to 500 nM and under 50 nM.
Consider `COc1c(C(C)Nc2ncnc3[nH]cnc23)cc(Cl)c(C)c1-c1cccc(CC#N)c1` (centres unmarked) [Example 46, {3′-chloro-6′-methoxy-2′-methyl-5′-[1-(9H-purin-6-ylamino)ethyl]biphenyl-3-yl}acetonitrile], for which the IC50 in assay [1] is under 100 nM; against PI3Kδ (p110δ/p85α), under 50 nM.
The like results for `COc1c(C(C)Nc2ncnc3[nH]cnc23)cc(Cl)c(C)c1-c1cc(Cl)cc(Cl)c1` (centres unmarked) [Example 47, N-[1-(3′,5,5′-trichloro-2-methoxy-6-methylbiphenyl-3-yl)ethyl]-9H-purin-6-amine] were, in that order, over 1000 nM and 100 to 250 nM.
Regarding `COc1c(C(C)Nc2ncnc3[nH]cnc23)cc(Cl)c(C)c1-c1ccc(N2CCOCC2)nc1` (centres unmarked) [Example 48, N-{1-[5-chloro-2-methoxy-4-methyl-3-(6-morpholin-4-ylpyridin-3-yl)phenyl]ethyl}-9H-purin-6-amine], the IC50 in assay [1] was under 100 nM; at PI3Kδ (p110δ/p85α) it was under 50 nM.
For `COc1c(C(C)Nc2ncnc3[nH]cnc23)cc(Cl)c(C)c1-c1ccnc(N2CCOCC2)c1F` (centres unmarked) [Example 49, N-{1-[5-chloro-3-(3-fluoro-2-morpholin-4-ylpyridin-4-yl)-2-methoxy-4-methylphenyl]ethyl}-9H-purin-6-amine], in that order: under 100 nM and under 50 nM.
Regarding `COc1c(C(C)Nc2ncnc3[nH]cnc23)cc(Cl)c(C)c1-c1ccc(F)nc1` (centres unmarked) [Example 51, N-{1-[5-chloro-3-(6-fluoropyridin-3-yl)-2-methoxy-4-methylphenyl]ethyl}-9H-purin-6-amine], the IC50 in assay [1] is under 100 nM; on PI3Kδ (p110δ/p85α) it was under 50 nM.
Turning to `COc1ccc(-c2c(C)c(Cl)cc(C(C)Nc3ncnc4[nH]cnc34)c2OC)cn1` (centres unmarked) [Example 52, N-{1-[5-chloro-2-methoxy-3-(6-methoxypyridin-3-yl)-4-methylphenyl]ethyl}-9H-purin-6-amine], the IC50 in assay [1] is under 100 nM; at PI3Kδ (p110δ/p85α), under 50 nM.
The like results for `COc1c(C(C)Nc2ncnc3[nH]cnc23)cc(Cl)c(C)c1N1CCC(O)CC1` (centres unmarked) [Example 60, 1-{3-Chloro-6-methoxy-2-methyl-5-[1-(9H-purin-6-ylamino)ethyl]phenyl}piperidin-4-ol] were, in that order, over 1000 nM and under 50 nM.
For `Cc1noc(C)c1-c1c(C)c(Cl)cc(C(C)Nc2ncnc3[nH]cnc23)c1-c1cccc(F)c1` (centres unmarked) [Example 71, N-{1-[4-chloro-6-(3,5-dimethylisoxazol-4-yl)-3′-fluoro-5-methylbiphenyl-2-yl]ethyl}-9H-purin-6-amine trifluoroacetate], in that order: under 100 nM and under 50 nM.
The like results for `Cc1c(Cl)cc(C(C)Nc2ncnc3[nH]cnc23)c(-c2cccc(F)c2)c1-c1cn[nH]c1` (centres unmarked) [Example 72, N-{1-[4-Chloro-3′-fluoro-5-methyl-6-(1H-pyrazol-4-yl)biphenyl-2-yl]ethyl}-9H-purin-6-amine trifluoroacetate] were, in that order, under 100 nM and under 50 nM.
For the compound `Cc1c(Cl)cc(C(C)Nc2ncnc3[nH]cnc23)c(-c2cccc(F)c2)c1-c1ccnn1C` (centres unmarked) [Example 74, N-{1-[4-chloro-3′-fluoro-5-methyl-6-(1-methyl-1H-pyrazol-5-yl)biphenyl-2-yl]ethyl}-9H-purin-6-amine], the IC50 in assay [1] is under 100 nM; on PI3Kδ (p110δ/p85α), under 50 nM.
The like results for `Cc1nn(C)c(C)c1-c1c(C)c(Cl)cc(C(C)Nc2ncnc3[nH]cnc23)c1-c1cccc(F)c1` (centres unmarked) [Example 75, N-{1-[4-chloro-3′-fluoro-5-methyl-6-(1,3,5-trimethyl-1H-pyrazol-4-yl)biphenyl-2-yl]ethyl}-9H-purin-6-amine] were, in that order, under 100 nM and under 50 nM.
For `Cc1c(Cl)cc(C(C)Nc2ncnc3[nH]cnc23)c(-c2cc(F)cc(F)c2)c1-c1ccncc1` (centres unmarked) [Example 76, N-[1-(4-Chloro-3′,5′-difluoro-5-methyl-6-pyridin-4-ylbiphenyl-2-yl)ethyl]-9H-purin-6-amine bis(trifluoroacetate)], the IC50 was under 100 nM in assay [1] and under 50 nM on PI3Kδ (p110δ/p85α).
